Test results from patent US20070021509A1, “Phosphate transport inhibitors” (priority 2001, published 2007).

Columns and labels:
[1] = system: sodium-dependent phosphate uptake into isolated rabbit intestinal rings; test: Ex vivo 33P uptake into isolated rabbit intestinal rings; type: cell-based; set-up: concentration or dose not given beside the values; conditions: Table 14, 15-minute incubation
Experimental: For the ex vivo assay, ^33P uptake into isolated rabbit intestinal rings was measured using a modification of the method described by Crane and Mandelstam [Robert K. Crane and Paul Mandelstam “The active transport of sugars by various preparations of hamster intestine” Biochim. Biophys. Acta 45: 460-476, 1960; the contents of which are incorporated herein by reference]. Male New Zealand rabbits 2-3 kg in weight were aeuthinized by an i.v. injection of Fatal Pluse®. A midline laparotomy was performed and the duodenum from the pyloric junction to the ligament of Trietz isolated and excised. Segments of bowel were everted, cut into 2-4 mm ring-like pieces and placed into a modified Hepes-Buffered Ringer's solution in which Na^+ had been iso-osmotically replaced with N-methyl-D-glucamine. To measure phosphate uptake, six rings were incubated in a 50 ml conical tube containing a 10 ml volume of Ringer's solution, with or without Na^+, bubbled with 100% O2 and maintained at 37° C. 0.5 uCi/ml ^33P was then incubated with the rings for a 15-minute period, the tissue harvested, rinsed, blotted dry and weighed. Tissues were then solublized by digesting them in a 5 ml volume of Solvable® tissue solubilizer overnight at 50° C. and ^33P levels determined by scintillation counting. Sodium-dependent uptake of ^33P was calculated by determining the difference in uptake between rings incubated in the presence and absence of Na^+ in the Hepes-Buffered Ringer's solution. Results are reported as the percentage inhibition of phosphate and glucose uptake, respectively.

[2] = system: phosphate uptake by rabbit intestinal Brush Border Membrane Vesicles (BBMV); test: 33PO4 uptake in rabbit intestinal BBMV (HTS), phosphate transporter inhibition in vitro; type: biochemical; conditions: Table 14, in vitro, read-out: Phosphate Transport IC50
How it was run: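 BBMV from duodenal mucosa of male New Zealand White rabbits, diluted to about 0.5-2.0 mg/mL protein. Uptake buffers carried 33PO4 at 200,000 CPM/19 μL. Controls: Na uptake buffer (max), plus 100 μM KH2PO4 pH 7.4 (mid), K uptake buffer (min).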

IC50 [2] | SMILES | % Phosphate Transport Inhibition [1]
35 µM | Cl.N=C(Nc1ccc(Br)c(C(F)(F)F)c1)Nc1ccc(Br)c(C(F)(F)F)c1 [Example 87, N,N′-Bis-(4-bromo-3-trifluoromethyl-phenyl)-guanidine Hydrochloride] | 71%
26 µM | Cl.N=C(Nc1cc(C(F)(F)F)cc(C(F)(F)F)c1)Nc1cc(C(F)(F)F)cc(C(F)(F)F)c1 [Example 88, N,N′-Bis-(3,5-bis-trifluoromethyl-phenyl)-guanidine Hydrochloride] | 60%
10 µM | O=C(Nc1cccc(C(F)(F)F)c1)Nc1cc(Cl)ccc1Cl [Example 85, 1-(2,5-Dichloro-phenyl)-3-(3-trifluoromethyl-phenyl)-urea] | 58%
11 µM | Cn1nc(C(C)(C)C)cc1C(=O)Nc1ccc(C(F)(F)F)cc1 [Example 84, 5-tert-Butyl-2-methyl-2H-pyrazole-3-carboxylic acid (4-trifluoromethyl-phenyl)-amide] | 41%
2.8 µM | O=C(Nc1cccc(C(F)(F)F)c1)Nc1ccc(F)c([N+](=O)[O-])c1 [Example 86, 1-(4-Fluoro-3-nitro-phenyl)-3-(3-trifluoromethyl-phenyl)-urea] | 30%
16 µM | Cl.N=C(Nc1ccc(Cl)c(C(F)(F)F)c1)Nc1ccc(Cl)c(C(F)(F)F)c1 [Example 89, N,N′-Bis-(4-chloro-3-trifluoromethyl-phenyl)-guanidine Hydrochloride] | 44%
17 µM | Cl.N=C(Nc1ccc(C(F)(F)F)c(C(F)(F)F)c1)Nc1ccc(C(F)(F)F)c(C(F)(F)F)c1 [Example 90, N,N′-Bis-(3,4-bis-trifluoromethyl-phenyl)-guanidine Hydrochloride] | 93%

The next lines start with the compound.

SMILES | IC50 [2] | % Phosphate Transport Inhibition [1]
COc1ccccc1CNC(=O)c1cc(Br)ccc1NS(=O)(=O)c1ccc(OC(F)(F)F)cc1 [Example 70, 5-Bromo-N-(2-methoxy-benzyl)-2-(4-trifluoromethoxy-benzenesulfonylamino)-benzamide] | 6.3 µM | 48%
O=C(NCc1ccc(OC(F)(F)F)cc1O)c1cc(Br)ccc1NS(=O)(=O)c1ccc(OC(F)(F)F)cc1 [Example 75, 5-Bromo-N-(2-hydroxy-4-trifluoromethoxy-benzyl)-2-(4-trifluoromethoxy-benzenesulfonylamino)-benzamide] | 5.2 µM | 56%
O=C(Nc1cc(C(F)(F)F)cc(C(F)(F)F)c1)NC1CCCCC1 [Example 83, 1-Cyclohexyl-3-(3,5-Bistrifluoromethyl-phenyl)-urea] | 7.7 µM | 76%
O=C(NCc1ccc(F)cc1)c1cc(Br)ccc1NS(=O)(=O)c1ccc(OC(F)(F)F)cc1 [Example 71, 5-Bromo-N-(4-fluoro-benzyl)-2-(4-trifluoromethoxy-benzenesulfonylamino)-benzamide] | 13 µM | 53%
O=C(Nc1cccc(C(F)(F)F)c1)Nc1cccc(C(F)(F)F)c1 [Example 82, 1,3Bis(3-Trifluoromethylphenyl)urea] | 11 µM | 25%
COc1ccc(F)cc1CNC(=O)c1cc(Br)ccc1NS(=O)(=O)c1ccc(OC(F)(F)F)cc1 [Example 78, 5-Bromo-N-(5-fluoro-2-methoxy-benzyl)-2-(4-trifluoromethoxy-benzenesulfonylamino)-benzamide] | 7.8 µM | 45%
